Values joined by “and” are separate entries in the source; they are usually repeats but may differ in a detail not shown here. Identical values can stand only once. Inconclusive results and toxic doses are left out.

This note sets out measurements from PubChem BioAssay AID330 (DTP/NCI, 2004).

The test system of the experiment is P388 leukemia ip, CD2F1 mice, survival T/C. Briefly: NCI In Vivo Anticancer Drug Screen. Data for tumor model P388 Leukemia (intraperitoneal) in CD2F1 (CDF1) mice. To be noted: endpoint: median survival time, higher = longer survival. In short, it runs like this: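 Mice carrying the transplanted tumor received test compound or vehicle. Survival was recorded in each group, and the value is the treated-group measurement divided by that of the vehicle-treated control group.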

Where [1] appears, read: dose: 25.0 mg/kg/injection, schedule: Q04DX003 (ip), vehicle: saline with Tween-80.
The mark [2] stands for this setting: dose: 100.0 mg/kg/injection, schedule: Q04DX003 (ip), vehicle: saline with Tween-80.
[3] abbreviates: dose: 60.0 mg/kg/injection, schedule: Q01DX005 (ip), vehicle: saline with Tween-80.
The mark [4] stands for this setting: dose: 120.0 mg/kg/injection, schedule: Q01DX005 (ip), vehicle: saline with Tween-80.
Where [5] appears, read: dose: 50.0 mg/kg/injection, schedule: Q01DX009 (ip), vehicle: saline with Tween-80.
[6] abbreviates: dose: 100.0 mg/kg/injection, schedule: Q01DX009 (ip), vehicle: saline with Tween-80.
Setting [7] is: dose: 200.0 mg/kg/injection, schedule: Q01DX009 (ip), vehicle: saline with Tween-80.
[8] abbreviates: dose: 50.0 mg/kg/injection, schedule: Q01DX005 (ip), vehicle: saline with Tween-80.
The mark [9] stands for this setting: dose: 100.0 mg/kg/injection, schedule: Q01DX005 (ip), vehicle: saline with Tween-80.
[10] abbreviates: dose: 200.0 mg/kg/injection, schedule: Q01DX005 (ip), vehicle: saline with Tween-80.
Setting [11] is: dose: 240.0 mg/kg/injection, schedule: Q01DX005 (ip), vehicle: saline with Tween-80.

`Cc1ccc2cc3c(ccc4ccccc43)c3c2c1CC3`: the T/C runs as follows: under setting [1], 113 % of control; (dose: 33.0 mg/kg/injection, schedule: Q01DX009 (ip), vehicle: saline with Tween-80) 121 % of control; under setting [2], 150 % of control; (dose: 300.0 mg/kg/injection, schedule: Q04DX003 (ip), vehicle: saline with Tween-80) 152 % of control; (dose: 400.0 mg/kg/injection, schedule: Q04DX003 (ip), vehicle: saline with Tween-80) 172 % of control.
In the case of `CCc1nnc(NC(=S)NC(=O)OC)s1`, the T/C was 100 % of control under setting [1]; 105 % of control (dose: 50.0 mg/kg/injection, schedule: Q04DX003 (ip), vehicle: saline with Tween-80); 105 % of control under setting [2].
Regarding `O=c1c(Cc2c(-c3ccccc3)[nH]c3ccccc23)coc2ccccc12`, the T/C was 90 % of control under setting [3] and 89 % of control under setting [4].
As for `COc1cc(OC)c(C(=O)C(CN(C)C)CN(C)C)cc1OC`, the T/C runs as follows: (dose: 1.87 mg/kg/injection, schedule: Q01DX005 (ip), vehicle: saline) 113 % of control; (dose: 3.75 mg/kg/injection, schedule: Q01DX005 (ip), vehicle: other) 113 % of control; (dose: 3.75 mg/kg/injection, schedule: Q01DX005 (ip), vehicle: saline) 107 % of control; (dose: 7.5 mg/kg/injection, schedule: Q01DX005 (ip), vehicle: other) 108 % of control; (dose: 7.5 mg/kg/injection, schedule: Q01DX005 (ip), vehicle: saline) 106 % of control; (dose: 15.0 mg/kg/injection, schedule: Q01DX005 (ip), vehicle: saline) 107 % of control. For the same compound, for the setting “dose: 120.0 mg/kg/injection, schedule: Q01DX005 (ip), vehicle: saline”, the T/C was 124 % of control.
With `O=c1c2cc3c(cc2c2cccc4c2n1CC4)OCO3`, the T/C (dose: 25.0 mg/kg/injection, schedule: Q01DX009 (ip), vehicle: other) is 96 % of control; the T/C (dose: 50.0 mg/kg/injection, schedule: Q01DX009 (ip), vehicle: other) is 100 % of control; the T/C (dose: 100.0 mg/kg/injection, schedule: Q01DX009 (ip), vehicle: other) is 86 % of control; the T/C (dose: 200.0 mg/kg/injection, schedule: Q01DX009 (ip), vehicle: other) was 89 % of control; the T/C (dose: 400.0 mg/kg/injection, schedule: Q01DX009 (ip), vehicle: other) was 91 % of control.
Turning to `CN1C(=O)C(Cc2cnc[nH]2)NC1=S` (centres undefined), the T/C by setting is: (dose: 60.0 mg/kg/injection, schedule: Q01DX005 (ip), vehicle: Klucel (hydroxypropylcellulose) (HPC)) 101 % of control; (dose: 120.0 mg/kg/injection, schedule: Q01DX005 (ip), vehicle: Klucel (hydroxypropylcellulose) (HPC)) 111 % of control; (dose: 240.0 mg/kg/injection, schedule: Q01DX005 (ip), vehicle: Klucel (hydroxypropylcellulose) (HPC)) 93 % of control.
`CC(=O)OC1=CC(OC(C)=O)C2C(=O)C3=C(C(=O)c4ccccc4C3=O)C(=O)C2C1` (centres undefined): the T/C by setting is: (dose: 100.0 mg/kg/injection, schedule: Q01DX001 (ip), vehicle: Klucel (hydroxypropylcellulose) (HPC)) 105 % of control; (dose: 200.0 mg/kg/injection, schedule: Q01DX001 (ip), vehicle: Klucel (hydroxypropylcellulose) (HPC)) 102 % of control; (dose: 400.0 mg/kg/injection, schedule: Q01DX001 (ip), vehicle: Klucel (hydroxypropylcellulose) (HPC)) 93 % of control.
Consider `CCc1ccc2c(c1)C(O)(c1ccccc1)c1ccccc1C2(O)c1ccccc1` (centres undefined), for which the T/C reads like this: under setting [5], 95 % of control; under setting [6], 94 % of control; under setting [7], 93 % of control.
As to `CC1(NC(=O)C23CC4CC(CC(C4)C2)C3)CCC(C(C)(C)NC(=O)C23CC4CC(CC(C4)C2)C3)CC1` (centres undefined), the T/C by setting is: under setting [8], 88 % of control; under setting [9], 88 % of control; under setting [10], 86 % of control.
With `CS(=O)CCN=Cc1ccc(N=Nc2ccc(O)cc2)cc1` (centres undefined), the T/C reads like this: under setting [3], 103 % of control; under setting [4], 103 % of control; under setting [11], 97 % of control.
Take `O=CNc1ncc([N+](=O)[O-])s1`: the T/C was 95 % of control (dose: 12.5 mg/kg/injection, schedule: Q01DX009 (ip), vehicle: saline with Tween-80); 90 % of control (dose: 25.0 mg/kg/injection, schedule: Q01DX009 (ip), vehicle: saline with Tween-80); 100 % of control and 102 % of control under setting [5].
As for `CC(=N/NC(=S)NCCN1CCCCC1)/C(C)=N\NC(=S)NCCN1CCCCC1`, the T/C (dose: 0.78 mg/kg/injection, schedule: Q01DX009 (ip), vehicle: saline) was 106 % of control; the T/C (dose: 1.56 mg/kg/injection, schedule: Q01DX009 (ip), vehicle: saline) is 94 % of control; the T/C (dose: 3.13 mg/kg/injection, schedule: Q01DX009 (ip), vehicle: saline) was 97 % of control; the T/C (dose: 6.25 mg/kg/injection, schedule: Q01DX009 (ip), vehicle: saline) was 103 % of control; the T/C (dose: 12.5 mg/kg/injection, schedule: Q04DX003 (ip), vehicle: saline with Tween-80) is 108 % of control; the T/C under setting [1] was 101 % of control.
As for `COC1=CC(=O)C=C(OC)C1=O`, the T/C was 109 % of control (dose: 0.5 mg/kg/injection, schedule: Q01DX009 (ip), vehicle: saline with Tween-80); 113 % of control (dose: 1.0 mg/kg/injection, schedule: Q01DX009 (ip), vehicle: saline with Tween-80); 119 % of control (dose: 2.0 mg/kg/injection, schedule: Q01DX009 (ip), vehicle: saline with Tween-80); 111 % of control (dose: 4.0 mg/kg/injection, schedule: Q01DX009 (ip), vehicle: saline with Tween-80).
Take `COc1cc(-c2nc(=S)[nH][nH]2)cc(OC)c1OC`: the T/C runs as follows: (dose: 100.0 mg/kg/injection, schedule: Q01DX001 (ip), vehicle: saline with Tween-80) 89 % of control; (dose: 200.0 mg/kg/injection, schedule: Q01DX001 (ip), vehicle: saline with Tween-80) 89 % of control; (dose: 400.0 mg/kg/injection, schedule: Q01DX001 (ip), vehicle: saline with Tween-80) 96 % of control.
As to `O=C1CCC(=O)N1SC(Cl)(Cl)Cl`, the T/C is 109 % of control (dose: 6.25 mg/kg/injection, schedule: Q01DX005 (ip), vehicle: saline with Tween-80); 107 % of control (dose: 12.5 mg/kg/injection, schedule: Q01DX005 (ip), vehicle: saline with Tween-80); 100 % of control (dose: 25.0 mg/kg/injection, schedule: Q01DX005 (ip), vehicle: saline with Tween-80).
For `C=C(C)C1CC=C(C)/C(=N/NC(=O)c2cccnc2)C1` (centres undefined), the T/C (dose: 50.0 mg/kg/injection, schedule: Q01DX005 (ip), vehicle: Klucel (hydroxypropylcellulose) (HPC)) is 116 % of control; the T/C (dose: 100.0 mg/kg/injection, schedule: Q01DX005 (ip), vehicle: Klucel (hydroxypropylcellulose) (HPC)) is 101 % of control; the T/C (dose: 200.0 mg/kg/injection, schedule: Q01DX005 (ip), vehicle: Klucel (hydroxypropylcellulose) (HPC)) was 109 % of control.
Regarding `CCOC(=O)C1=C(C)/C(=C\c2[nH]c(C)c(C(=O)OCC)c2C)N=C1C`, the T/C by setting is: under setting [3], 103 % of control; under setting [4], 94 % of control; under setting [11], 96 % of control.
In the case of `COC(=O)c1cc(C)cc(O)c1C`, the T/C is, setting by setting: under setting [5], 102 % of control; under setting [6], 101 % of control; under setting [7], 99 % of control; (dose: 400.0 mg/kg/injection, schedule: Q01DX009 (ip), vehicle: saline with Tween-80) 101 % of control.
Take `CC(=O)OCC12C3CC(=O)OC1C(OC(=O)C=C(C)C)C1C(C)=CC(=O)C(OC(C)=O)C1(C)C2C(=O)C(OC(C)=O)C3C` (centres undefined): the T/C is, setting by setting: (dose: 0.5 mg/kg/injection, schedule: Q01DX009 (ip), vehicle: distilled water + Tween-80) 100 % of control; (dose: 1.0 mg/kg/injection, schedule: Q01DX009 (ip), vehicle: distilled water + Tween-80) 97 % of control; (dose: 2.0 mg/kg/injection, schedule: Q01DX009 (ip), vehicle: distilled water + Tween-80) 102 % of control; (dose: 4.0 mg/kg/injection, schedule: Q01DX009 (ip), vehicle: distilled water + Tween-80) 101 % of control; (dose: 8.0 mg/kg/injection, schedule: Q01DX009 (ip), vehicle: distilled water + Tween-80) 102 % of control.
Turning to `C1CCc2nc3c(nc2C1)CCCC3`, the T/C is 101 % of control under setting [8], 101 % of control under setting [9] and 92 % of control under setting [10].
